The results in this text go back to PubChem BioAssay AID179 (DTP/NCI, 2004).

The source made the active and inactive calls.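 Rule for the calls: active = compounds giving half or more protection of infected cells from virus-caused growth loss, again on retest; inactive = the rest.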 Bounds are passed on as bounds.

One may read the EC50 as the concentration that produces a half-maximal response. Usually IC50 stands for the concentration that gives 50% inhibition. Read a high IC50 as weaker potency.

The experiment deals with CEM cells HIV-1 protection, formazan growth assay. Description: NCI AIDS Antiviral Assay. Particulars: for IC50: measured here: growth of uninfected CEM cells. The gist of the method:
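Human CEM cells, uninfected and HIV-1-infected, exposed to five drug concentrations; growth measured by soluble formazan assay and scored as percent protection from infection, with protecting compounds retested.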

As for `CC(C)=NOC(=O)CNC(=O)C(Cc1ccccc1)NC(=O)C(C)NC(=O)OC(C)(C)C` (configuration not stated), the EC50 was greater than 200 µM and the IC50 was greater than 200 µM. Regarding `Oc1ccc(Cl)cc1-c1cc(-c2ccccc2)nc(=S)[nH]1`, the EC50 was greater than 200 µM and the IC50 is 170 µM. `O=[N+]([O-])c1ccccc1OS(=O)(=O)c1ccccc1`: the result was inactive. On the same count and under the same terms, in the case of `O=C1C(=C2C(=O)c3ccccc3[N+]2=O)N([O-])c2ccccc21` it was “inactive”. Take `c1ccc(N=C2c3ccccc3C3=NCCCN32)cc1`: the EC50 was greater than 100 µM and the IC50 was greater than 100 µM. With `CC1c2cc(c3c(c2O)CN([C@@H](C)C2CCCCC2)CO3)C(C)c2cc(c3c(c2O)CN([C@@H](C)C2CCCCC2)CO3)C(C)c2cc(c3c(c2O)CN([C@@H](C)C2CCCCC2)CO3)C(C)c2cc1c1c(c2O)CN([C@@H](C)C2CCCCC2)CO1` (some centres not stated), the EC50 was greater than 100 µM and the IC50 is 1.74 µM. In the same order, the values of `CC(=O)OCCCOCn1c(Cc2ccccc2)c(C)c(=O)[nH]c1=O` are 100 µM and greater than 200 µM.

With `COc1nc(NC2OC(CO)C(O)C2O)cc(=O)n1C` (configuration not stated), the result was inactive. Consider `O=C(Nc1ccccc1)c1cc(C(=O)Nc2ccccc2)[nH]n1`, for which the outcome was inactive.

For `CN1CC2=C(OC(N)=C(C#N)C2c2cccs2)/C(=C/c2cccs2)C1` (configuration not stated), the EC50 was greater than 200 µM and the IC50 turned out to be 8.13 µM. In the same order, the values of `OC(C1CCCCCCCCCC1)C(O)C1CCCCCCCCCC1` (configuration not stated) are greater than 200 µM and greater than 200 µM. Regarding `Cc1cc(C)nc(NS(=O)(=O)c2ccc(NC(=O)NC(F)(F)F)cc2)n1`, the EC50 was greater than 200 µM and the IC50 is greater than 200 µM. Regarding `COC(=O)C(NC(=O)C12CCC(C)(C(=O)O1)C2(C)C)c1cc(C(C)(C)C)c(O)c(C(C)(C)C)c1` (configuration not stated), the EC50 was greater than 20 µM and the IC50 was greater than 20 µM. `SC1N=C(c2ccccc2)N2C(S)N=C(c3ccccc3)N12` (configuration not stated): the EC50 is greater than 200 µM and the IC50 was 83.2 µM.

Regarding `CCOP(=O)(OCC)/C(=C\NC(=S)N=Nc1c(O)[nH]c2ccccc12)C(=O)OC`, the EC50 was greater than 200 µM and the IC50 came out at 117 µM. In the same order, the values of `Cc1ccc2oc(=O)ccc2c1` are greater than 427 µM and 174 µM.

Regarding `CN=C(N)N=Nc1c(O)[nH]c2ccccc12`, the EC50 is greater than 200 µM and the IC50 is greater than 200 µM.

Regarding `C[CH2][Sn]([Cl])([Cl])[CH2]C`, the result was inactive.

In the case of `COC(=O)C1OC12CCCCC2` (configuration not stated), the EC50 is greater than 200 µM and the IC50 was greater than 200 µM. Regarding `CO[C@H]1/C=C/O[C@@]2(C)Oc3c(C)c(O)c4c(O)c(c(/C=N/N5C(C)CN(Cc6ccc(C#N)cc6)CC5C)c(O)c4c3C2=O)NC(=O)/C(C)=C\C=C\[C@H](C)[C@H](O)[C@@H](C)[C@@H](O)[C@@H](C)[C@H](OC(C)=O)[C@@H]1C` (some centres not stated), the EC50 is greater than 200 µM and the IC50 is 9.12 µM. With `CCOC(=O)Oc1cc2ccsc2c2c1c1ccccc1n2C(=O)OCC`, the EC50 was greater than 200 µM and the IC50 is 35.5 µM. Regarding `CC(=O)Nc1cc2nc3n(c2cc1C)CCC3OC(C)=O` (configuration not stated), the EC50 is greater than 200 µM and the IC50 was greater than 200 µM. `N#CC(C(=O)Nc1ccccc1)C1=C(Cl)C(=O)c2ccccc2C1=O` (configuration not stated): the EC50 is greater than 251 µM and the IC50 came out at 39.8 µM. As for `CC1(C)C2CCC(N)(C2)C1N` (configuration not stated), the EC50 is greater than 200 µM and the IC50 was greater than 200 µM. `CCOc1ccc(-n2c(=O)c(N=Nc3ccccc3Cl)c(O)n(-c3ccc(Br)cc3)c2=S)cc1` displayed an EC50 greater than 174 µM and an IC50 greater than 174 µM. Take `COc1ccc(C(CC(=O)c2ccccc2)C(=O)c2ccc3c(c2)OCO3)cc1` (configuration not stated): the EC50 was greater than 200 µM and the IC50 was greater than 200 µM.

On to `[O-][n+]1ccccc1SSc1cccc[n+]1[O-]`, for which the EC50 is greater than 2 µM and the IC50 is 0.141 µM. In the same order, the values of `O=C1OC(=O)C2=C1C1C=CC2O1` are greater than 1070 µM and 295 µM. As to `Cc1oc2nc(N(C)C)n3cnnc3c2c1C`, the result was inactive.
